{"source": "patent US12569536B2", "about": "“Macrocyclic peptides for targeted inhibition of autophagy” (Board of Regents, The University of Texas System, priority 2019, dated 2026)", "system": "HeLa cells stably transfected with a GFP-LC3 fusion", "assay_type": "cell-based", "details": "HeLa starved in Hank's Balanced Salt Solution", "source_text": "FIG. 11: Confocal microscopy of SUPR 4B1W-Rox in autophagic HeLa cells. A line of HeLa cells was stably transfected with a GFP-LC3 fusion. When starved for 2+ hours in Hank's Balanced Salt Solution, these cells become autophagic and GFP signal becomes punctate as GFP-LC3 fusions are embedded in the autophagosome.", "note": "Bridge positions count the residues as written; N and C are the ends. Square brackets hold non-standard residues; d marks the D form. Primed or numbered codes have the meaning given here. Ends that are not written are not given here. DSG″ = disuccinimidyl glutarate, a bis-NHS cross-linker that leaves a glutaryl bridge between two amines; NMeA = CN[C@@H](C)C(=O)O", "data": [{"substance": "SUPR 4B1W-ROX: SUPR 4B1W conjugated to the fluorophore ROX (MWPHRVTA[NMeA]K; bridge N-10 via DSG″; also: conjugated to fluorophore ROX, site not given here)", "values": [{"measurement": "co-localization with GFP-LC3", "value": "Significant co-localization of ROX and GFP signal"}]}]}
